From patent US4730069A, “Cis-platinum complexes with a pentaerythritol derivative as the ligand, a process for their preparation and a pharmaceutical agent containing these compounds” (Behringwerke Aktiengesellschaft, priority 1984, dated 1988) come the findings set out here.

In this data set the test system is NMRI mice. The experiment in a line: Determination of the acute toxicity (NMRI mice, intravenous). Format: in vivo. The settings on record: intravenous on day 0, survival on day 14, which LD not stated. Here is the method:
To determine the acute toxicity, NMRI mice are injected intravenously on day 0 with different doses of the test substance, dissolved in 0.5 ml of physiological saline solution. Control groups receive only 0.5 ml of physiological saline solution. 5 mice are used per concentration of the test substance. On day 14, the number of surviving mice is determined and the LD5, LD50 and LD95 are determined therefrom by the Litchfield Wilcoxon method. The toxicity of the compounds described here is summarized in comparison with cisplatin in Table 1.

Consider “5,5-Bis-(aminomethyl)-2-methyl-2-octadecyl-1,3-dioxane-platinum(II) hydroxide [Compound 57]”, for which the “Acute toxicity (LD5, LD50 and LD95 by the Litchfield Wilcoxon method) (Table 1, column c)” value is 3.4.
